From article PMC2880318 (Immunome Research, 2010)
Where a SMILES comes first, the peptide text is derived from it.

The compounds below were run against purified HLA-DRB1*0101 (Homo sapiens, UniProt P01903+P01911, A100R/D57E/F55L/F60I/F76Y/I96L/L162R/M171V/P40L/Q125E/R42F/V115G/Y59C) (assay: biochemical).
Assay type: binding

In order of falling IC50:
1. CC(C)C[C@H](NC(=O)[C@H](CO)NC(=O)[C@@H]1CCCN1C(=O)[C@@H]1CCCN1C(=O)[C@H](C)NC(=O)[C@@H](NC(=O)[C@H](CCCNC(=N)N)NC(=O)[C@H](CCCNC(=N)N)NC(=O)[C@H](Cc1ccccc1)NC(=O)[C@H](CCC(=O)O)NC(=O)[C@H](C)NC(=O)[C@H](CO)NC(=O)[C@@H]1CCCN1)[C@@H](C)O)C(=O)N[C@@H](Cc1ccc(O)cc1)C(=O)NCC(=O)O [MACV Z21-35] (H-PSAEFRRTAPPSLYG-OH)  2 nM
2. CC(C)[C@H](NC(=O)[C@H](C)NC(=O)[C@H](Cc1c[nH]c2ccccc12)NC(=O)[C@H](Cc1ccccc1)NC(=O)[C@H](Cc1ccccc1)NC(=O)[C@H](CC(N)=O)NC(=O)[C@H](CCC(N)=O)NC(=O)[C@H](CC(N)=O)NC(=O)[C@@H](N)CC(N)=O)C(=O)N[C@@H](CCCCN)C(=O)N1CCC[C@H]1C(=O)N[C@@H](CCCCN)C(=O)N[C@H](C(=O)N[C@H](C(=O)N[C@@H](CCCNC(=N)N)C(=O)O)C(C)C)C(C)C [MACV L1711-1725]  1.7 nM
3. CC[C@H](C)[C@H](NC(=O)[C@H](CC(C)C)NC(=O)[C@H](Cc1c[nH]cn1)NC(=O)[C@H](CC(=O)O)NC(=O)[C@H](CO)NC(=O)[C@H](CCC(=O)O)NC(=O)[C@H](CC(C)C)NC(=O)[C@H](CC(C)C)NC(=O)[C@H](Cc1c[nH]c2ccccc12)NC(=O)[C@H](CCC(N)=O)NC(=O)[C@H](CC(N)=O)NC(=O)[C@H](CCCNC(=N)N)NC(=O)[C@@H](N)Cc1ccccc1)C(=O)N[C@@H](CO)C(=O)N[C@@H](CCC(=O)O)C(=O)O [WWAV GPC386-400] (H-FRNQWLLESDHLISE-OH)  1.6 nM
4. CC[C@H](C)[C@H](NC(=O)[C@@H](N)Cc1ccccc1)C(=O)N[C@H](C(=O)N[C@@H](Cc1ccccc1)C(=O)N[C@@H](CC(C)C)C(=O)N[C@@H](CC(C)C)C(=O)N[C@@H](CC(C)C)C(=O)N[C@@H](C)C(=O)NCC(=O)N[C@@H](CCCNC(=N)N)C(=O)N[C@@H](CO)C(=O)N[C@@H](CS)C(=O)N[C@@H](CO)C(=O)N[C@@H](Cc1ccc(O)cc1)C(=O)N[C@@H](CCCCN)C(=O)O)C(C)C [WWAV GPC46-60] (H-FIVFLLLAGRSCSYK-OH)  1.2 nM
5. CC(C)C[C@H](NC(=O)[C@H](Cc1ccccc1)NC(=O)[C@H](CC(C)C)NC(=O)[C@@H](NC(=O)[C@@H](NC(=O)[C@@H](NC(=O)[C@@H](N)Cc1ccccc1)[C@@H](C)O)[C@@H](C)O)[C@@H](C)O)C(=O)N[C@@H](Cc1c[nH]cn1)C(=O)N[C@@H](CC(C)C)C(=O)N[C@H](C(=O)NCC(=O)N[C@@H](Cc1ccccc1)C(=O)N1CCC[C@H]1C(=O)N[C@H](C(=O)N[C@@H](Cc1c[nH]cn1)C(=O)O)[C@@H](C)O)C(C)C [SABV GPC436-450] (H-FTTTLFLHLVGFPTH-OH)  0.92 nM
6. CC(C)C[C@H](NC(=O)CNC(=O)[C@H](CC(C)C)NC(=O)[C@H](CO)NC(=O)[C@@H](NC(=O)[C@H](CC(C)C)NC(=O)[C@H](C)NC(=O)[C@H](CCC(N)=O)NC(=O)[C@@H](NC(=O)[C@@H](NC(=O)[C@H](CO)NC(=O)[C@@H](N)CC(N)=O)C(C)C)C(C)C)[C@@H](C)O)C(=O)N[C@@H](CC(C)C)C(=O)N[C@@H](Cc1ccc(O)cc1)C(=O)N[C@H](C(=O)O)[C@@H](C)O [MACV NP191-205]  0.78 nM
7. CC[C@H](C)[C@H](NC(=O)[C@H](CC(C)C)NC(=O)[C@H](CO)NC(=O)[C@@H](N)C(C)C)C(=O)N[C@@H](C)C(=O)N[C@@H](C)C(=O)N[C@@H](CC(C)C)C(=O)N[C@@H](CCCCN)C(=O)NCC(=O)N[C@@H](CCSC)C(=O)N[C@H](C(=O)N[C@@H](CC(N)=O)C(=O)N[C@@H](CC(C)C)C(=O)N[C@@H](Cc1c[nH]c2ccccc12)C(=O)N[C@@H](CCCCN)C(=O)O)[C@@H](C)CC [SABV GPC26-40] (H-VSLIAALKGMINLWK-OH)  0.47 nM
8. CC[C@H](C)[C@H](NC(=O)[C@H](CC(=O)O)NC(=O)[C@H](CC(N)=O)NC(=O)[C@H](Cc1ccccc1)NC(=O)[C@@H](NC(=O)[C@H](CCCCN)NC(=O)[C@H](CCCNC(=N)N)NC(=O)[C@H](C)NC(=O)[C@H](CS)NC(=O)[C@H](CC(N)=O)NC(=O)[C@H](CCCNC(=N)N)NC(=O)[C@@H](NC(=O)[C@H](Cc1ccccc1)NC(=O)[C@H](CO)NC(=O)[C@@H](N)[C@@H](C)O)[C@@H](C)CC)C(C)C)C(=O)O [MACV L1491-1505]  0.11 nM
9. CC[C@H](C)[C@H](NC(=O)[C@H](Cc1c[nH]cn1)NC(=O)[C@H](CCCNC(=N)N)NC(=O)[C@H](Cc1c[nH]cn1)NC(=O)[C@@H](NC(=O)[C@@H]1CCCN1C(=O)[C@H](Cc1ccccc1)NC(=O)CNC(=O)[C@@H](NC(=O)[C@H](CC(C)C)NC(=O)[C@H](Cc1c[nH]cn1)NC(=O)[C@H](CC(C)C)NC(=O)[C@@H](N)Cc1ccccc1)C(C)C)[C@@H](C)O)C(=O)N[C@@H](CCCNC(=N)N)C(=O)NCC(=O)O [SABV GPC441-455] (H-FLHLVGFPTHRHIRG-OH)  0.09 nM
